In patent US20210322443A1 (MAPREG, priority 2015, published 2021):

Tests used:
MAP2 = MAP2 (Homo sapiens, UniProt P11137); assay: Binding by displacement of PREG-3H
[1] = molecular target: purified tubulin and MAP2 (Homo sapiens, UniProt P11137); assay: Increase in optical density at 345 nm of purified tubulin and MAP2 (microtubule polymerization); type: biochemical; details: 37° C., GTP
Description: Activity is measured by the increase in optical density at 345 nm of a mixture of purified tubulin and MAP2, incubated at 37° C. in the presence of GTP.

PC12 cells = assay: Stimulation of neuritic sprouting in NGF-differentiated PC12 cells; type: cell-based; details: NGF 10 ng/ml, steroid 30 μM, 3 days, relative to PREG
Description: Stimulation of neuritic sprouting is conducted on PC12 cells differentiated in the presence of NGF (10 ng/ml) and the steroid being tested (30 μM) for 3 days. For each condition, the average length of the longest 200 neurites in each cell is measured simultaneously for 3 cultures.

[2] = molecular target: T1, human progesterone receptor(PR) (Homo sapiens, UniProt P06401); assay: Progesterone receptor agonist transactivation (MMTV-luciferase) in transfected HEK293T cells; type: cell-based; details: 24 hours, increasing amounts, FIG. 1
T1 construct: expressed in transfected cells; host or cells: HEK293T
T1 sequence (P06401 1-933): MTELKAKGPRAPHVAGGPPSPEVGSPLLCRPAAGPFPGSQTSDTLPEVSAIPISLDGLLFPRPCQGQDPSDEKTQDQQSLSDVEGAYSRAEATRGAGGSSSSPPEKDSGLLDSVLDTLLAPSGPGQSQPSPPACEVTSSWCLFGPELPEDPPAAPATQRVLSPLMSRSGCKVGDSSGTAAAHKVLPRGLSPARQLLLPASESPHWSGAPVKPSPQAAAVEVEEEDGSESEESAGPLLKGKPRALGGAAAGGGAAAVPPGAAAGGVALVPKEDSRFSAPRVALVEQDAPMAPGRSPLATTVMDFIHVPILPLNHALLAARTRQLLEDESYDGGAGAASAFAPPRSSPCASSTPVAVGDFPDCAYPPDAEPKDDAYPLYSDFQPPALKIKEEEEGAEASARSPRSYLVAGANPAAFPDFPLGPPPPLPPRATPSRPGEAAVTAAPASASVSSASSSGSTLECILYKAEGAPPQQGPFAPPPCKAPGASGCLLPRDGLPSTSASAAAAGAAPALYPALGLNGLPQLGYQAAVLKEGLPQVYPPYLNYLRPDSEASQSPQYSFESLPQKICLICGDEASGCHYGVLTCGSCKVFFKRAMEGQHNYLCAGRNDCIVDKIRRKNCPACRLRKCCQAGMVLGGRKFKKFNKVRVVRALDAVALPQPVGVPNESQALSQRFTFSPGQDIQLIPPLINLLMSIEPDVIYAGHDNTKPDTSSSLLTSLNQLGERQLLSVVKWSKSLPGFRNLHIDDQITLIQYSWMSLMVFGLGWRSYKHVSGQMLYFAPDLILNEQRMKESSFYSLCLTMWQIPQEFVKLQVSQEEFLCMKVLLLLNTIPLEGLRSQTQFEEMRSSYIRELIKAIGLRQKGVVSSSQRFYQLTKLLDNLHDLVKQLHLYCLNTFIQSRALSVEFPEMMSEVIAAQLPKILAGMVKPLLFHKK
Description: The main experimental setting used is the following: HEK293T cells were transiently transfected, using calcium phosphate precipitation technology, with expression vectors pSG5hPR (which permits expression of human progesterone receptor(PR)), pFC31-luc (contains the luciferase gene under the control of the MMTV promoter, which is in turn activated by binding of a progestin to progesterone receptor) and pcbetagal (which permits expression of betagalactosidase), and cultured during 24 hours with increasing amounts of various compositions: • 1. […] Test of progesterone receptor […] activity: transfected cells were cultured with progesterone (1 nM) and increasing amounts of RU486 (a well-known progesterone receptor antagonist) or 3-methoxy-pregnenolone. • With this setting, a compound with progesterone receptor antagonist activity competes with progesterone for the occupation of progesterone receptor and results in a progressive loss of transactivation activity when the amount of this compound is increased compared to progesterone.

MAP2, sequence (P11137 whole entry): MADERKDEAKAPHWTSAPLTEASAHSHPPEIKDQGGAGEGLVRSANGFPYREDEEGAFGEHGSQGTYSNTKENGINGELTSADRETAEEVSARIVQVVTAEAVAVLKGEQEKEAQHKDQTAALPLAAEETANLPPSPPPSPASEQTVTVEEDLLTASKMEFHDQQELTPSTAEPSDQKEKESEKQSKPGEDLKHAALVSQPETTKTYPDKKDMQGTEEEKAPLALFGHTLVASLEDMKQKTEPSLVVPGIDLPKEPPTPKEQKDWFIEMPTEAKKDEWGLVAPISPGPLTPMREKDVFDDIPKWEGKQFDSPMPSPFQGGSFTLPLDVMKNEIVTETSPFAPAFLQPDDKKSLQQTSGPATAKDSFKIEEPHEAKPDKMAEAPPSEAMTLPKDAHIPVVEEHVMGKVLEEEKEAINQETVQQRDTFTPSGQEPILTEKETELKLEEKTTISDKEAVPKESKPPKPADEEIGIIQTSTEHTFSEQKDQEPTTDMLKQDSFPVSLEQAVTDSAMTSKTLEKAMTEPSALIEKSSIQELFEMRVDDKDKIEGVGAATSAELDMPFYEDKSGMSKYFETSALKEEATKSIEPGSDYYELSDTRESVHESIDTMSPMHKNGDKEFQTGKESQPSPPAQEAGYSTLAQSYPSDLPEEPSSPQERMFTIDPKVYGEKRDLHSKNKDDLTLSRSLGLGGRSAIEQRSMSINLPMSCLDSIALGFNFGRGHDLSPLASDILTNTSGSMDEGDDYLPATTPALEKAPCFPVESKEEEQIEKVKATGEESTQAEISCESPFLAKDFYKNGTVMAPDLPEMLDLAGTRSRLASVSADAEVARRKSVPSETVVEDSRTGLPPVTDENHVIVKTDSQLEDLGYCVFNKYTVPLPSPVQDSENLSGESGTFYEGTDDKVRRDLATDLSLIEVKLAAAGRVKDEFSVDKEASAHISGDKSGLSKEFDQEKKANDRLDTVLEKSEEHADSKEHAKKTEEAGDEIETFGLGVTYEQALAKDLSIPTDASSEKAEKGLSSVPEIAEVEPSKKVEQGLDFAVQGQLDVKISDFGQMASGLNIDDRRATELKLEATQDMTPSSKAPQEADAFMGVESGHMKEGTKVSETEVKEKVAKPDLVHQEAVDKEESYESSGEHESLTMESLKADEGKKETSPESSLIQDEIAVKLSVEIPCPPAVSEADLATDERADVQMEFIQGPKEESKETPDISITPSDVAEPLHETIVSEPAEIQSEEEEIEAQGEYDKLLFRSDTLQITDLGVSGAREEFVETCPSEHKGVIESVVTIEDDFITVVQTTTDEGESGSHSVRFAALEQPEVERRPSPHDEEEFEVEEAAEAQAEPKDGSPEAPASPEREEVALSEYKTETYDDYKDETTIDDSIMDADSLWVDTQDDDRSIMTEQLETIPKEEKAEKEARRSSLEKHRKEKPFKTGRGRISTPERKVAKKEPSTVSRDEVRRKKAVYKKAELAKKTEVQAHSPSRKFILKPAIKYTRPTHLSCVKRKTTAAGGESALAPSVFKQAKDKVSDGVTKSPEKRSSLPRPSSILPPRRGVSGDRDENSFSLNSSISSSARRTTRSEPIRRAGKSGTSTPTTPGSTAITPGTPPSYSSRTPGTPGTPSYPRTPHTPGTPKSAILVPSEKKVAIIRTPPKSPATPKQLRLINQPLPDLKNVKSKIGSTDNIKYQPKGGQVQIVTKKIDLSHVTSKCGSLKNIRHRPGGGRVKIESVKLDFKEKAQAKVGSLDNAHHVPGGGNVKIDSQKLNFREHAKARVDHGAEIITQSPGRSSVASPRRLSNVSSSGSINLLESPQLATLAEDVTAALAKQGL
purified tubulin and MAP2, sequence (P11137 whole entry): as above

| Structure (SMILES) | Affinity (index of binding, percent of PREG) (MAP2) | Activity (percent of PREG) [1] | Neuritic sprouting (PC12 cells) | progesterone receptor agonist activity (transactivation, luciferase expression) [2] |
| --- | --- | --- | --- | --- |
| CC(=O)[C@H]1CC[C@H]2[C@@H]3CC=C4C[C@@H](O)CC[C@]4(C)[C@H]3CC[C@]12C [Pregnenolone (PREG), 3β-hydroxypregn-5-en-20-one, reference compound] | 100% of PREG | 100% of PREG |  |  |
| CO[C@H]1CC[C@@]2(C)[C@@H](CC[C@@H]3[C@@H]2CC[C@]2(C)[C@@H](C(C)=O)CC[C@@H]32)C1 [3B-methoxy-5a-pregnane-20-one, 3β-methoxy-5α-pregnane-20-one] | 87% of PREG | 10% of PREG | +++ |  |
| CO[C@H]1CC[C@@]2(C)C(=CC[C@@H]3[C@@H]2CC[C@@]2(C)[C@H]3CC[C@@]2(C(C)=O)C(Cl)Cl)C1 [3β-methoxy-pregna-5-ene-20-one-17α-dichloromethyl] | 53% of PREG | 113% of PREG |  |  |
| CO[C@H]1CC[C@@]2(C)C(=CC[C@H]3C4=CC[C@H](C(C)=O)[C@@]4(C)CC[C@@H]32)C1 [3B-methoxy-pregna-5,14-diene-20-one] | 102% of PREG | 50% of PREG | + (stimulation is lower than) |  |
| CO[C@H]1CC[C@@]2(C)C(CCC3C2CC[C@@]2(C)C3CC[C@@H]2[C@@H](C)O)C1 (stereo partly drawn) [3B-methoxy-5a-pregnane-20B-ol, 3β-methoxy-5α-pregnane-20β-ol] | 65% of PREG | 65% of PREG | ++ (equal to) |  |
| CC(=O)[C@H]1CC[C@H]2[C@@H]3CCC4=CC(=O)CC[C@]4(C)[C@H]3CC[C@]12C [progesterone, reference compound] |  |  |  | permits a transactivation activity leading to the expression of luciferase |
